Measurements published in publication doi:10.1101/2021.10.07.463234v2 (biorxiv, 2021).
Structures can show the parent of a compound that is named as a salt.

Molecular target: SARS-CoV-2 Mac1 (Severe acute respiratory syndrome coronavirus 2, UniProt P0DTD1)
Test: biochemical
Details: for inhibition at 100 µM: read-out: %inhibition; for %inhibition: 100 µM, inhibitor

Structure (SMILES) | inhibition at 100 µM | %inhibition
CC1=C(/C=C/C(C)=C/C=C/C(C)=C/C=C/C=C(C)/C=C/C=C(C)/C=C/C2=C(C)CCCC2(C)C)C(C)(C)CCC1 [Beta Carotene] | 7.3% | 
OC(c1ccccc1)(c1ccccc1)C12CC[N+](CCOCc3ccccc3)(CC1)CC2 [Umeclidinium bromide] | 0% | 
COc1cc2nccc(Oc3ccc(NC(=O)C4(C(=O)Nc5ccc(F)cc5)CC4)cc3)c2cc1OC [Cabozantinib malate (XL184)] |  | 0%
N[C@@H](C(=O)N[C@@H]1C(=O)N2C(C(=O)O)=C(Cl)CS[C@H]12)c1ccccc1 [Cefaclor] | 0% | 
CC(C)C(Br)C(=O)NC(N)=O (centres unmarked) [Bromisoval] | 0% | 
CS(=O)(=O)CCNCc1ccc(-c2ccc3ncnc(Nc4ccc(OCc5cccc(F)c5)c(Cl)c4)c3c2)o1 [Lapatinib] |  | 0%
C#Cc1cccc(Nc2ncnc3cc4c(cc23)OCCOCCOCCO4)c1 [Icotinib] | 15.2% | 
CNCC(=O)c1ccc(O)c(O)c1 [Adrenalone HCl] | 6.88% | 
Cn1nnc2c(C(N)=O)ncn2c1=O [Temozolomide] | 34.1% | 
Cc1onc(-c2c(Cl)cccc2Cl)c1C(=O)N[C@@H]1C(=O)N2[C@@H]1SC(C)(C)[C@@H]2C(=O)O [Dicloxacillin Sodium] | 10.8% | 
CCCCCCCCCCCCCCCC(=O)O[C@@H]1[C@@H](O)[C@@H](O)[C@@H]([C@H](NC(=O)[C@@H]2C[C@@H](CCC)CN2C)[C@H](C)Cl)O[C@@H]1SC [Clindamycin palmitate HCl] | 22.9% | 
COc1cc2nc(N3CCN(C(=O)c4ccco4)CC3)nc(N)c2cc1OC [Prazosin HCl] | 17.1% | 
CC(C)(C)C(O)/C=C/c1ccc2c(c1)OCO2 (centres unmarked) [Stiripentol] | 12.5% | 
CN[C@@H]1[C@H](O[C@H]2[C@H](O[C@H]3[C@H](O)[C@@H](O)[C@H](N=C(N)N)[C@@H](O)[C@@H]3N=C(N)N)O[C@@H](C)[C@]2(O)CO)O[C@@H](CO)[C@H](O)[C@H]1O [Dihydrostreptomycin sulfate] | 6.08% | 
CSCCNc1nc(SCCC(F)(F)F)nc2c1ncn2[C@@H]1O[C@H](COP(=O)(O)OP(=O)(O)C(Cl)(Cl)P(=O)(O)O)[C@@H](O)[C@H]1O [Cangrelor Tetrasodium] | 0% | 
Cc1cc(-c2ccccc2)nnc1NCCN1CCOCC1 [Minaprine dihydrochloride] | 2.13% | 
CCN(CC)CC(=O)Nc1c(C)cccc1C [Lidocaine] |  | 1.6%
O=C(O)c1ccccc1OP(=O)(O)O [Fosfosal] | 4.81% | 
CC(C)C(=O)Nc1ccc([N+](=O)[O-])c(C(F)(F)F)c1 [Flutamide] | 0% | 
C=C1CC[C@@]2(O)[C@H]3Cc4ccc(O)c5c4[C@@]2(CCN3CC2CC2)[C@H]1O5 [Nalmefene HCl] | 0% | 
CC(=O)O[C@H]1Cc2ccccc2N(C(N)=O)c2ccccc21 [Eslicarbazepine Acetate] | 0% | 
O=C(O)CCCN1CCC(O[C@@H](c2ccc(Cl)cc2)c2ccccn2)CC1 [Bepotastine Besilate] | 15% | 
Cn1cc(C2=C(c3cn(C4CCN(Cc5ccccn5)CC4)c4ccccc34)C(=O)NC2=O)c2ccccc21 [Enzastaurin (LY317615)] | 34.6% | 
Nc1c(Br)cc(Br)cc1CN[C@H]1CC[C@H](O)CC1 [Ambroxol HCl] |  | 9.799%

Structure (SMILES) | inhibition at 100 µM | %inhibition
CCOc1cc2ncc(C#N)c(Nc3ccc(F)c(Cl)c3)c2cc1NC(=O)/C=C/CN(C)C [Pelitinib (EKB-569)] | 0% | 
Nc1nc2c(ncn2COCCO)c(=O)[nH]1 [Aciclovir] | 19.8% | 
N[C@@H](CCC(=O)O)C(=O)O [L-Glutamic acid monosodium salt] | 0% | 
C/C=C1\[C@H]2C=C(C)C[C@]1(N)c1ccc(=O)[nH]c1C2 [(-)-Huperzine A (HupA)] | 0% | 
CN(C)CCOC(=O)COc1ccc(Cl)cc1 [Meclofenoxate (Centrophenoxine) HCl] | 16.9% | 
CO[C@H]1C[C@@H]2CC[C@@H](C)[C@@](O)(O2)C(=O)C(=O)N2CCCC[C@H]2C(=O)O[C@H]([C@H](C)C[C@@H]2CC[C@@H](OC(=O)C(C)(CO)CO)[C@H](OC)C2)CC(=O)[C@H](C)/C=C(\C)[C@@H](O)[C@@H](OC)C(=O)[C@H](C)C[C@H](C)/C=C/C=C/C=C/1C [Temsirolimus (CCI-779, NSC 683864)] | 14.6% | 
Cc1ccnc2c1NC(=O)c1cccnc1N2C1CC1 [Nevirapine] | 20.6% | 
Cc1ccc(C(=O)c2ccc(CC(=O)O)n2C)cc1 [Tolmetin Sodium] |  | 0.1982%
O=C(O)c1ccc(-n2nc(-c3ccccc3O)nc2-c2ccccc2O)cc1 [Deferasirox] | 16.8% | 
C[C@H]1O[C@@H](n2cc(F)c(=O)[nH]c2=O)[C@H](O)[C@@H]1O [Doxifluridine] | 0% | 
O[C@@H](COc1cccc2ncccc12)CN1CCN(C2c3ccccc3[C@@H]3[C@H](c4ccccc42)C3(F)F)CC1 (some centres unmarked) [Zosuquidar (LY335979) 3HCl] | 0% | 
NS(=O)(=O)NCCNc1nonc1/C(=N/O)Nc1ccc(F)c(Br)c1 [Epacadostat (INCB024360)] | 14.8% | 
CC(C)(C)NCC(O)c1ccc(O)c(CO)c1 (centres unmarked) [Salbutamol] |  | 0%
c1cnc2cc3c(cc2n1)[C@@H]1CNC[C@H]3C1 [Varenicline Tartrate] | 0% | 
COCCCOc1ccnc(C[S+]([O-])c2nc3ccccc3[nH]2)c1C (centres unmarked) [Rebeprazole sodium] |  | 0%
CC(=O)O[C@]1(C(C)=O)CC[C@H]2[C@@H]3C=C(Cl)C4=CC(=O)[C@@H]5C[C@@H]5[C@]4(C)[C@H]3CC[C@@]21C [Cyproterone Acetate] | 0% | 
CO[C@H]1/C=C/O[C@@]2(C)Oc3c(C)c(O)c4c(O)c(c(/C=N/N5CCN(C)CC5)c(O)c4c3C2=O)NC(=O)/C(C)=C\C=C\[C@H](C)[C@H](O)[C@@H](C)[C@@H](O)[C@@H](C)[C@H](OC(C)=O)[C@@H]1C [Rifampin] | 31.3% | 
COC(=O)c1ccc2c(C(=Nc3ccc(N(C)C(=O)CN4CCN(C)CC4)cc3)c3ccccc3)c(O)[nH]c2c1 [Nintedanib (BIBF 1120)] |  | 17.91%
Cc1occc(=O)c1O [Maltol] | 15.5% | 
O=C(O)c1cc(=O)c2ccccc2o1 [Chromocarb] | 21.6% | 
O=C(O)c1cc(=O)[nH]c(=O)[nH]1 [Orotic acid (6-Carboxyuracil)] | 0% | 
CCCCc1nc(Cl)c(CO)n1Cc1ccc(-c2ccccc2-c2nnn[nH]2)cc1 [Losartan] |  | 18.38%
C[C@@H](O)[C@H]1C(=O)N2C(C(=O)O)=C([C@H]3CCCO3)S[C@H]12 [Faropenem Sodium] | 0% | 
CO/N=C(\C(=O)N[C@@H]1C(=O)N2C(C(=O)O)=C(CSc3nnnn3C)CS[C@H]12)c1csc(N)n1 [Cefmenoxime hydrochloride] | 0% | 

Structure (SMILES) | inhibition at 100 µM | %inhibition
CC[C@H]1OC(=O)[C@H](C)[C@@H](O[C@H]2C[C@@](C)(OC)[C@@H](O)[C@H](C)O2)[C@H](C)[C@@H](O[C@@H]2O[C@H](C)C[C@H](N(C)C)[C@H]2O)[C@](C)(O)C[C@@H](C)C(=O)[C@H](C)[C@@H](O)[C@]1(C)O [Erythromycin thiocyanate] |  | 1.029%
O=C(Nc1cccc2c(=O)cc(-c3nnn[nH]3)oc12)c1ccc(OCCCCc2ccccc2)cc1 [Pranlukast] | 4.22% | 
CC(=O)Oc1ccccc1C(=O)O [Carbasalate Calcium] |  | 5.528%
CC[C@@]1(O)C(=O)OCc2c1cc1n(c2=O)Cc2cc3c(CN(C)C)c(O)ccc3nc2-1 [Topotecan HCl] | 24.2% | 
CN1CCN(c2ccc3nc(-c4c(N)c5c(F)cccc5[nH]c4=O)[nH]c3c2)CC1 [Dovitinib (TKI-258, CHIR-258)] |  | 50.41%
Nc1c2c(nc3ccccc13)CCCC2 [Tacrine hydrochloride hydrate] |  | 12.09%
CCCCC(CC)COC(=O)C=Cc1ccc(OC)cc1 (centres unmarked) [Octinoxate] | 0% | 
COc1ccccc1Oc1c(NS(=O)(=O)c2ccc(C(C)(C)C)cc2)nc(-c2ncccn2)nc1OCCO [Bosentan Hydrate] | 0.962% | 
C[C@]12CC[C@@H]3c4ccc(O)cc4CC[C@H]3[C@@H]1CCC2=O [Estrone] | 0% | 
O=C1CCc2cc(OCCCCc3nnnn3C3CCCCC3)ccc2N1 [Cilostazol] | 7.33% | 
CO[C@H]1/C=C/O[C@@]2(C)Oc3c(C)c(O)c4c(O)c(c5c(nc6cc(C)ccn65)c4c3C2=O)NC(=O)/C(C)=C\C=C\[C@H](C)[C@H](O)[C@@H](C)[C@@H](O)[C@@H](C)[C@H](OC(C)=O)[C@@H]1C [Rifaximin] | 22.3% | 
CC(C)Oc1ccc2c(=O)c(-c3ccccc3)coc2c1 [Ipriflavone (Osteofix)] | 0% | 
Cc1c(C(C)C)c(=O)n(-c2ccccc2)n1C [Propyphenazone (4-Isopropylantipyrine)] | 0% | 
CC(N)C12CC3CC(CC(C3)C1)C2 (centres unmarked) [Rimantadine] | 28.1% | 
O=C(O)c1ccccc1 [Benzoic Acid] |  | 1.824%
Cc1cc(O)cc(C)c1Cl [Chloroxylenol] | 0% | 
COC(=O)[C@@H]1[C@H]2C[C@H]3c4[nH]c5ccccc5c4CCN3C[C@@H]2CC[C@@H]1O [Yohimbine HCl] | 0% | 
Cc1nccn1CCC(C(N)=O)(c1ccccc1)c1ccccc1 [Imidafenacin] | 8.33% | 
C[N+]1(C)CCCC(OC(=O)C(O)(c2ccccc2)c2ccccc2)C1 (centres unmarked) [Mepenzolate Bromide] | 0% | 
Cc1ccccc1-n1c(CF)nc2ccc(N)cc2c1=O [Afloqualone] | 0% | 
O=C(O)COCCN1CCN([C@H](c2ccccc2)c2ccc(Cl)cc2)CC1 [Levocetirizine Dihydrochloride] | 7.84% | 
CC[C@H](C)C(=O)O[C@H]1C[C@@H](C)C=C2C=C[C@H](C)[C@H](CC[C@@H]3C[C@@H](O)CC(=O)O3)[C@H]21 [Lovastatin] | 0% | 
CN1CCC(COc2cnc(-c3cccc(Cn4nc(-c5cccc(C#N)c5)ccc4=O)c3)nc2)CC1 [Tepotinib (EMD 1214063)] | 0% | 
